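Method: 48-hour compound exposure of cells in 96-well plates, five concentrations, linear interpolation of endpoints. At the GI50, growth is halved.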 Calls of active or inactive are those of the source. No stated cut-off is given here; in the data, active = GI50 up to about 1.1 µM and inactive = higher.
What was measured:
Experiment in all cases: inhibition of tumour cell growth, NCI panel, 48 h
[1] = system: NCI/ADR-RES
[2] = system: CCRF-CEM
[3] = system: K562
[4] = system: HCT-116
[5] = system: OVCAR-5
[6] = system: SK-MEL-2
[7] = system: UO-31
[8] = system: OVCAR-8
[9] = system: T47D
[10] = system: TK-10
[11] = system: MCF7
[12] = system: OVCAR-4
[13] = system: SF-539
[14] = system: MOLT-4
[15] = system: LOX IMVI
[16] = system: SK-MEL-28
[17] = system: SNB-78
[18] = system: SNB-19
[19] = system: UACC-62
[20] = system: SF-268

Measured: GI50

C=C(CCCCCCCCC)CC(=O)SCCNC(=O)CCNC(=O)C(O)C(C)(C)COP(=O)(O)OP(=O)(O)OCC1OC(n2cnc3c(N)ncnc32)C(O)C1OP(=O)(O)O (configuration not stated)
inactive: [1] > 100 µM | [2] > 70.6 µM | [3] > 31.6 µM | [4] 45.5 µM | [5] > 100 µM | [6] 60.8 µM | [7] 99.1 µM | [8] 58.2 µM | [9] > 76.9 µM | [10] > 100 µM | [11] > 87.5 µM | [12] 60.4 µM | [13] 51.3 µM | [14] > 57.1 µM | [15] 38.3 µM | [16] 10.4 µM | [17] 25.5 µM | [18] > 71.6 µM | [19] 21.1 µM | [20] 8.73 µM

COc1cc(/C=C2\CCC(C)(CN(C)C)C2=O)cc(OC)c1OC (configuration not stated)
inactive: [2] 52.4 µM | [3] 63.7 µM | [4] > 79.3 µM | [5] > 100 µM | [6] > 100 µM | [7] > 100 µM | [8] > 100 µM | [10] > 100 µM | [12] > 100 µM | [13] > 100 µM | [14] > 83.6 µM | [15] > 100 µM | [16] > 100 µM | [17] > 44.7 µM | [18] > 100 µM | [19] 70.5 µM | [20] > 100 µM

Reference: ChEMBL document CHEMBL1201862, “PubChem BioAssay data set” (2004)
